Patent publication USRE40594E1, “Inhibitors of the bitter taste response” (Mount Sinai School of Medicine of New York University, priority 1998, dated 2008)
“Also recorded” adds a separate entry of the source.

Tests used:
[1] = system: bovine taste receptor cell membranes (taste receptors) with transducin; test: G protein activation assay (trypsin sensitivity): activation of transducin by bitter tastant plus taste membranes; type: biochemical, Bovine (Bos primigenius)
Excerpt: Taste receptor is contacted with gustducin or transducin and tastant, in the presence or absence of test inhibitor, under conditions suitable for activation of the G-protein present. […] In specific non-limiting embodiments, a subunits of transducin or gustducin may be combined with βγ subunits prior to this step, as set forth above. To the reaction mixture comprising taste receptors and gustducin or transducin, test inhibitor and/or bitter tastant may be added, and the resulting solution incubated to permit interaction of the elements.
In preferred embodiments, activation is assessed by a trypsin digestion assay. […] In a specific, non-limiting example, to perform a trypsin digestion assay according to the invention, TPCK-treated trypsin (1:25 trypsin to total protein in the reaction mixture) may be added, and the digestion may be performed at room temperature for about 15 minutes and stopped by adding soybean trypsin inhibitor (6:1 mol/mol inhibitor to trypsin). […] The separated polypeptides may then be transferred by electro-blotter to a poly (vinylidene difluoride) membrane blocked by the addition of 5% BLOTTO [50 mM Tris-HCI, pH 7.4/100 mM NaCl/5% nonfat dry milk], (30 min). G-protein peptides may then be visualized by binding of antibody directed toward transducin or gustducin, followed, for example, by binding of a detectably labeled secondary antibody. If a horseradish peroxidase-labeled secondary antibody is used, binding may be visualized by developing with bicinchoninic acid staining reagents and exposure to x-ray film.
G Protein Activation Assays. Bovine (Bos primigenius) tongues were collected fresh from a local slaughterhouse and transported on ice to the laboratory. Circumvallate papillae were hand dissected, frozen in liquid nitrogen, and stored at −80° C. until use. […] The pelleted membranes were rinsed twice, resuspended in homogenization buffer lacking protease inhibitors, and further homogenized by 20 passages through a 25-gauge needle. Aliquots were either flash frozen or stored on ice until use. […] The separated polypeptides were transferred by electro-blotter to a poly (vinylidene difluoride) membrane, which was blocked by the addition of 5% BLOTTO [50 mM Tris-HCI, pH 7.4/100 mM NaCl/5% nonfat dry milk], (30 min), then transducin peptides were visualized by binding of transducin antiserum and horseradish peroxidase-labeled goat anti-rabbit secondary antibody, followed by developing with bicinchoninic acid staining reagents from Bio-Rad and exposure to x-ray film.
Chemicals. All bitter tastant and buffer chemicals were of the highest purity available and were purchased either from Sigma or Boehringer Mannheim, unless otherwise noted. […] The rabbit polyclonal antitransducin antibody was a kind gift of Mel Simon and John Watson (California Institute of Technology, Pasadena, Calif.).

[2] = system: glossopharyngeal nerve responses of C57BL/6J mice; test: Glossopharyngeal nerve recording on lingual stimulation with tastants; type: in vivo; conditions: inhibitor 0.1 mM
Method: Nerve Recording. Glossopharyngeal nerve responses were recorded from male C57BL/6J mice as previously described (Ninomiya, Y., et al., 1997, Am. J. Physiol. (London) 272:R1002-RI006). Each mouse was anesthetized with intraperitoneal injection of sodium pentobarbital (40-50 mg/kg) and maintained at a surgical level of anesthesis with supplemental injections of the drug. The trachea was cannulated, and the mouse was then fixed in the supine position with a head holder to allow dissection of the glossopharyngeal nerve. The hypoglossal nerve was transected bilaterally to prevent inadvertent tongue movements. The right glossopharyngeal nerve was exposed by removal of the digastric muscle and posterior horn of the hyoid bone. The glossopharyngeal nerve was then dissected free from underlying tissues and cut near its entrance to the posterior foramen lacerum. The entire nerve was placed on a silver wire electrode for whole nerve recording. An indifferent electrode was positioned nearby in the wound. […] Whole nerve responses were integrated by using an RMS-DC converter (Hendrick, Tallahassee, Fla.) with a time constant of 0.5 s. For chemical stimulation of the circumvallate and foliate papillae, an incision was made on each side of the animal's face from the comer of the mouth to just above the angle of the jaw, the papillae were exposed, and their trenches opened via slight tension applied through a small suture sewn in the tip of the tongue. Tastant solutions were delivered to the tongue by gravity flow, and flowed over the tongue for a controlled period. The stability of each preparation was monitored by the periodic application of 0.1 M NH4Cl. A recording was considered to be stable when the 0.1 M NH4Cl response magnitudes at the beginning and end of each stimulation series deviated by no more than 15%. Only responses from stable recordings were used in the data analysis. In the analysis of whole nerve responses, the magnitudes of the integrated response at 20, 25, 30, 35. and 40 s after stimulus onset were measured and averaged to generate tonic responses: the tonic response represents the sustained nerve response to continuous tastant stimulation of taste receptor cells. The relative tonic response for each stimulus was obtained by normalization to the response from 0.1 M NH4Cl (the tonic response of NH4Cl was defined as 1.0). Student's t test was used for statistical analysis.

Nc1nc2c(ncn2[C@@H]2O[C@H](COP(=O)(O)O)[C@@H](O)[C@H]2O)c(=O)[nH]1 [GMP, reference compound]
inhibition of in vitro activation of transducin (G-protein) by taste membranes plus bitter compounds, summary statement ([1]; DEN, QUI and other bitter compounds, concentrations not given): did not | inhibition of taste membrane activation of transducin in response to other bitter tastants (than DEN) ([1]; concentrations not given): did not inhibit | inhibition of activation of transducin by DEN plus bovine taste receptor membranes ([1]; inhibitor 0.25, 0.5, 1.25, 2.5, 5.0 mM, DEN 5.0 mM, shift from 32-kDa to 23-kDa fragments, FIG. 1A/1E): does not inhibit; also recorded: did not inhibit | inhibition of glossopharyngeal nerve responses to atropine ([2]; 1.0 mM ATR, FIGS. 4A-C): had no effect | inhibition of glossopharyngeal nerve responses to sparteine ([2]; 1.0 mM SPA, FIGS. 4A-C, 4I (P<0.001)): had no effect | inhibition of glossopharyngeal nerve responses to strychnine ([2]; 1.0 mM STR, FIGS. 4A-C): had no effect | inhibition of glossopharyngeal nerve responses to DEN ([2]; 5.0 mM DEN, FIGS. 4A-C): had no effect | inhibition of glossopharyngeal nerve responses to QUI ([2]; QUI 0.1 and 1.0 mM, FIGS. 4D-F): had no effect
